In one assay the test system is B16F10 melanoma cells. Put plainly: In vivo primary tumor growth assay. More on the design: species or system mouse. The following applies: B16F10 in C57B16 mice. How it is done:
For primary tumor growth studies, 5×10^4 B16F10 melanoma cells were mixed 1:1 with matrigel and subcutaneously injected into the lower flanks of 6-week old C57B16 mice. Upon the formation of palpable tumors, 4-5 days after tumor cell injection, 10 mice were randomly assigned to groups eating a control diet or a diet supplemented with compound 8 (5 and 25 mg/kg). Tumor volume was calculated as (small diameter)^2×(large diameter)/2 and tumor growth inhibition was measured relative to vehicle control.

Assay [1] deals with ApoE. In words: ApoE gene expression analysis by qRT-PCR in MeWo cancer cells. Format: cell-based. To be noted: Homo sapiens, MeWo, 48 h; for Emax at 1 µM / Emax at 10 µM: read-out: ApoE gene expression in relation to GW3965 at 1 μM (100%). On the procedure:
Cancer cells (MeWo) were treated in presence of drug or control (DMSO) at indicated concentrations for 48 h. RNA was extracted from whole cell lysates using the Total RNA Purification Kit (17200, Norgen, Thorold, Canada). 600 ng of total RNA was then reverse transcribed into cDNA using the Verso cDNA Synthesis Kit (AB-1453/B, Fisher Scientific). 6 ng of the resulting cDNA was then mixed with SYBR green PCR Master Mix (4309155, Applied Biosystems) and the appropriate primers. Each reaction was performed in quadruplicate, and mRNA expression was quantified by performing real-time PCR amplification using a StepOne Plus Real-Time PCR System (Applied Biosystems). GAPDH was used as an endogenous control for normalization. EC50 values were calculated using Prism6 software and plotting expression values versus drug concentration. The following primers were used: [table] The results are shown in relation to GW3965 ApoE expression at 1 μM (i.e. 100%).
(Quantitative PCR measures a nucleic acid by following its amplification.)

In assay [2] the test system is ApoE. In words: Pharmacodynamic analysis of ApoE in peripheral blood lymphocytes (qRT-PCR). It is filed as in vivo, mouse. The following applies: mice. How it is done: In Vivo Dosing and Sample Collection: 6-7 week old […] received a single dose of Compound 8 at 52.6 mg/kg, formulated in 2% DMSO/20% Propylene Glycol/78% 0.5% Methylcellulose (400 cp) at a final concentration of 4.62 mg/mL by oral gavage. Bleeds were taken at 0.5 h, 2 h, 4 h, 8 h, 16 h, 24 h and 48 h. Mice were bled twice, the first bleed was drawn submandibular and the second through intracardiac puncture. Blood was collected in Dipotassium EDTA Microtainer tubes (02-669-38, Fisher). To isolate peripheral blood lymphocytes, blood samples were centrifuged at 2000 g for 5 min. After separation of the plasma, Erythrocytes were lysed in 1 mL Erythrocyte Lysis (EL) buffer (79217, Qiagen) and incubation at room temperature for 20 min. Samples were centrifuged at 400 g for 10 min, and peripheral blood lymphocytes washed once in EL buffer, followed by one wash in PBS.
ApoE Gene Expression Analysis by qRT-PCR: RNA was extracted from peripheral blood lymphocytes using the Total RNA Purification Micro Kit (35300, Norgen, Thorold, Canada). 200-300 ng of total RNA was then reverse transcribed into cDNA using the Verso cDNA synthesis Kit (AB-1453B, Fisher Scientific) and 6 ng of the resulting cDNA was mixed with SYBR Green PCR Mater Mix (4385612, Applied Biosystems) and quantitative real-time PCR amplification was performed using an ABI Prism 7900HT Real-Time PCR System (Applied Biosystems, Austin, Tex.). Each PCR reaction was carried out in quadruplicates. Gene expression was normalized to GAPDH, which was used as an endogenous control. Primers used as described in Example 86.
Results: The results of ApoE induction in vivo by compound 8 is shown in Table 9 where Pre-Dose represents endogenous levels of ApoE induction prior to dosing, n is the number of samples analyzed, and values are expressed as fold induction over pre-dose endogenous ApoE levels (normalized to 1.0). Peak induction of compound 8 is >6-fold over background at 4 h.

In a further assay the test system is Cancer cells (MeWo). In words: Matrigel invasion assay. It is filed as cell-based. The following applies: 1 μM drug, invasion 24 h. On the procedure:
Cancer cells (MeWo) were pre-treated in presence of 1 μM drug or control (DMSO) for 72 h after which cancer cells were switched to serum-starvation in 0.2% FBS DMEM-based media for 16 h in the presence of the drug or control, respectively. Trans-well invasion chambers (354480, BD Biosciences, Bedford, Mass.) were pre-equilibrated in DMEM-based media prior to the beginning of the assay by adding 0.5 ml of starvation media to the top and bottom chambers. After 30 min, the media in the top chamber was removed, and 0.5 ml of media containing 1×10^5 cancer cells in the presence of the drug, was added into each matrigel-coated trans-well insert. Cells were allowed to invade through the matrigel-coated inserts for 24 h at 37° C.

The target of another assay is LXRβ (Homo sapiens (Human), UniProt P55055). Put plainly: ligand sensing assay (LiSA), LXRβ. Format: biochemical. To be noted: ratio of EC50 values. The text has this:
As used herein, reference to the activity of an LXR agonist at LXRα and LXRβ refer to the activity as measured using the ligand sensing assay (LiSA) described in Spencer et al. J. Med. Chem. 2001, 44, 886-897, incorporated herein by reference. […] For example, the methods of the invention can be performed using an LXRβ agonist having activity for LXRβ that is at least 3-fold greater than the activity of the agonist for LXRα, or having activity for LXRβ that is at least 10-fold greater than the activity of the agonist for LXRα, or having activity for LXRβ that is at least 100-fold greater than the activity of the agonist for LXRα, or having activity for LXRβ that is at least within 3-fold of the activity of the agonist for LXRα. The term “greater activity” in the LiSA assay refers to a lower EC50.

Another assay has as its system Aβ plaque burden. The following applies: mouse model of Alzheimer's disease, Jiang et al., Neuron 2008; cited from earlier work.

Read-outs that look alike come from different tables or passages of the source.

As usually defined, the EC50 is the concentration at which the effect is half-maximal. A higher EC50 goes with a less potent agent.

LXRβ, sequence (P55055 whole entry): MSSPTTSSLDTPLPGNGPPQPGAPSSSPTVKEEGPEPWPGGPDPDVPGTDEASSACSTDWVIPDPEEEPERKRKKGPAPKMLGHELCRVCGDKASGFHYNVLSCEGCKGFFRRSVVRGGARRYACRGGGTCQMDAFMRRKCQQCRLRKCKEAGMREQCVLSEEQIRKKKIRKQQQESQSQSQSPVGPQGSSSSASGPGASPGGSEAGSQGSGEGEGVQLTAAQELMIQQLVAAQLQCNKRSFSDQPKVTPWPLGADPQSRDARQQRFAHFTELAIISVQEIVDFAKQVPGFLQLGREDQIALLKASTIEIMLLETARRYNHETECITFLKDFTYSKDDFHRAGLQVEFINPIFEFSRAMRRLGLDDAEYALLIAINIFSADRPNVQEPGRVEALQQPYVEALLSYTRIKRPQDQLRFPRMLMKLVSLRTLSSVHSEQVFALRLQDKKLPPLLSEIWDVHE

Take `CS(=O)(=O)c1cc(OCCCN(Cc2cccc(C(F)(F)F)c2Cl)CC(c2ccccc2)c2ccccc2)cc(F)c1CO` [Compound 8, {4-[3-({[2-chloro-3-(trifluoromethyl)phenyl]methyl}(2,2-diphenylethyl)amino)propoxy]-2-fluoro-6-methanesulfonylphenyl}methanol]: the results for the “Mean tumor volume (mm3) (+/−S.E.M.)” value in the assay on B16F10 melanoma cells (5 mg/kg in diet) and in the assay on B16F10 melanoma cells (25 mg/kg in diet) were 686 (+/−97) mm3 and 475 (+/−56) mm3, respectively. Besides, the “Tumor growth inhibition % of control (+/−S.E.M.)” value with B16F10 melanoma cells (5 mg/kg in diet) was 13% (+/−12%). The EC50 in the assay on ApoE [1] was less than 1 µM. Also, in the assay with ApoE [1], the Emax at 1 µM is greater than 80%. Further, the Emax at 10 µM with ApoE [1] was greater than 80%. In addition, the “Fold ApoE Induction Over Pre-Dose Level (+/−S.D.)” value is recorded as 1.3 (+/−0.3) fold in the assay on ApoE [2] (0.5 h after single oral dose 52.6 mg/kg); 2.7 (+/−0.5) fold in the assay with ApoE [2] (2 h after single oral dose 52.6 mg/kg); 6.3 (+/−1.8) fold in the assay on ApoE [2] (4 h after single oral dose 52.6 mg/kg); 3.8 (+/−2.4) fold in the assay with ApoE [2] (8 h after single oral dose 52.6 mg/kg); 0.3 (+/−0.4) fold in the assay on ApoE [2] (16 h after single oral dose 52.6 mg/kg); 0.4 (+/−0.6) fold in the assay on ApoE [2] (24 h after single oral dose 52.6 mg/kg). Besides, the “Fold ApoE Induction Over Pre-Dose Level (+/−S.D.)” value in the assay on ApoE [2] (48 h after single oral dose 52.6 mg/kg) was 0.1 (+/−0.3) fold. Besides, the “% of Cells Migrated Compared to Control” value in the assay with Cancer cells (MeWo) is less than 50%.
As for `O=C(O)Cc1cccc(OCCCN(Cc2cccc(C(F)(F)F)c2Cl)CC(c2ccccc2)c2ccccc2)c1` [GW3965, reference compound], in the assay on ApoE [1], the EC50 is less than 0.3 µM and the Emax at 10 µM is greater than 40%. The Emax at 1 µM with ApoE [1] (reference value) was 100%. Besides, on LXRβ, the “fold greater activity for LXRβ compared to LXRα” value is given as “approximately 6 fold”. Further, the amyloid-beta plaques result in the assay on Aβ plaque burden is “therapeutic reduction of amyloid-beta plaques”. The “% of Cells Migrated Compared to Control” value in the assay on Cancer cells (MeWo) is recorded as less than 70%.
For the compound `C[C@H](CCO[C@H]1CCCN(S(C)(=O)=O)C1)N(Cc1cccc(C(F)(F)F)c1Cl)CC(c1ccccc1)c1ccccc1` [Compound 31, {[2-chloro-3-(trifluoromethyl)phenyl]methyl}(2,2-diphenylethyl)[(2R)-4-{[(3S)-1-methanesulfonylpiperidin-3-yl]oxy}butan-2-yl]amine], in the assay with ApoE [1], the EC50 was less than 1 µM, the Emax at 1 µM was greater than 40% and the Emax at 10 µM is greater than 80%. The “% of Cells Migrated Compared to Control” value with Cancer cells (MeWo) was less than 70%.
Consider `O=C(Cc1cccc(OCCCN(Cc2cccc(C(F)(F)F)c2Cl)CC(c2ccccc2)c2ccccc2)c1)NO` [Compound 1, 2-{3-[3-({[2-chloro-3-(trifluoromethyl)phenyl]methyl}(2,2-diphenylethy)amino)propoxy]phenyl}-N-hydroxyacetamide], for which, in the assay on ApoE [1], the EC50 is less than 1 µM, the Emax at 1 µM is greater than 80% and the Emax at 10 µM is less than 40%. The “% of Cells Migrated Compared to Control” value with Cancer cells (MeWo) was less than 95%.

The values above are taken from US10669296B2, “LXR agonists and uses thereof” (Rgenix, Inc., priority 2014, dated 2020).
